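Method: 48-hour compound exposure of cells in 96-well plates, five concentrations, linear interpolation of endpoints. At the GI50, growth is halved.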 The source made the active and inactive calls. Rule as the data show it: active = GI50 up to about 1.1 µM and inactive = higher.
Key:
Assay in all cases: inhibition of tumour cell growth, NCI panel, 48 h
[1] = system: SF-539
[2] = system: COLO 205
[3] = system: HL-60
[4] = system: M14
[5] = system: 786-0
[6] = system: EKVX
[7] = system: A549
[8] = system: RXF 393
[9] = system: MDA-MB-231
[10] = system: Hs-578T
[11] = system: OVCAR-5
[12] = system: UACC-257
[13] = system: SK-OV-3
[14] = system: HCC 2998
[15] = system: NCI-H460
[16] = system: DU-145
[17] = system: MOLT-4
[18] = system: SK-MEL-2
[19] = system: Malme-3M
[20] = system: MDA-MB-435

Structure (SMILES) | GI50 [1] | GI50 [2] | GI50 [3] | GI50 [4] | GI50 [5] | GI50 [6] | GI50 [7] | GI50 [8] | GI50 [9] | GI50 [10] | GI50 [11] | GI50 [12] | GI50 [13] | GI50 [14] | GI50 [15] | GI50 [16] | GI50 [17] | GI50 [18] | GI50 [19] | GI50 [20]
O=[N+]([O-])c1ccc2c(c1)C(N1CCN(CCO)CC1)Cc1ccc(F)cc1S2 (configuration not stated) | 6.22 µM (inactive) | 5.48 µM (inactive) | 5.02 µM (inactive) | 3.15 µM (inactive) | 12 µM (inactive) | 11.2 µM (inactive) | 12.1 µM (inactive) | < 0.01 µM (active) | 12.9 µM (inactive) | 6.75 µM (inactive) | 13.4 µM (inactive) | 2.57 µM (inactive) | 17.3 µM (inactive) | 2.58 µM (inactive) | 8.61 µM (inactive) | 14.8 µM (inactive) | 1.04 µM (active) | – | – | –
C=CCNC(=O)/C=C\C(=O)O | > 100 µM (inactive) | > 100 µM (inactive) | > 100 µM (inactive) | > 100 µM (inactive) | > 100 µM (inactive) | > 100 µM (inactive) | > 100 µM (inactive) | > 100 µM (inactive) | – | – | > 100 µM (inactive) | > 100 µM (inactive) | > 100 µM (inactive) | > 100 µM (inactive) | > 100 µM (inactive) | – | > 100 µM (inactive) | > 100 µM (inactive) | > 100 µM (inactive) | –
O=C(Nc1nc2ccc([N+](=O)[O-])cc2[n+]([O-])n1)C(F)(F)F | 45.4 µM (inactive) | 4.65 µM (inactive) | 12.9 µM (inactive) | 37.3 µM (inactive) | 36.1 µM (inactive) | – | 24.6 µM (inactive) | 54.8 µM (inactive) | 26.9 µM (inactive) | – | 41.8 µM (inactive) | 16.9 µM (inactive) | – | 49.8 µM (inactive) | 14.3 µM (inactive) | 37.9 µM (inactive) | 24.4 µM (inactive) | 20.7 µM (inactive) | 8.02 µM (inactive) | 17.6 µM (inactive)
CS(=O)(=O)OCCn1c(=O)n(CCOS(C)(=O)=O)c(=O)n(CCOS(C)(=O)=O)c1=O | > 100 µM (inactive) | > 100 µM (inactive) | > 100 µM (inactive) | – | > 100 µM (inactive) | > 100 µM (inactive) | > 100 µM (inactive) | > 100 µM (inactive) | > 100 µM (inactive) | – | > 100 µM (inactive) | > 100 µM (inactive) | > 100 µM (inactive) | > 100 µM (inactive) | > 100 µM (inactive) | > 100 µM (inactive) | > 100 µM (inactive) | – | > 100 µM (inactive) | > 100 µM (inactive)
Cc1ccc(O)c(/N=N\c2c(O)cc(S(=O)(=O)O)c3ccccc23)c1 | 62.5 µM (inactive) | 67.6 µM (inactive) | 16.4 µM (inactive) | 24.6 µM (inactive) | 57.5 µM (inactive) | 96.4 µM (inactive) | 54.6 µM (inactive) | > 100 µM (inactive) | 25.4 µM (inactive) | > 100 µM (inactive) | 45.6 µM (inactive) | 94.6 µM (inactive) | 51.4 µM (inactive) | > 100 µM (inactive) | 35.6 µM (inactive) | – | 26.5 µM (inactive) | 29.7 µM (inactive) | 25.2 µM (inactive) | 56.9 µM (inactive)
CC1(C)Cc2c(cnn2-c2ccc(C(F)(F)F)cc2)-c2[nH]c(-c3ccc(O)cc3)nc21 | – | 13.7 µM (inactive) | 4.72 µM (inactive) | 14.9 µM (inactive) | 3.32 µM (inactive) | 20.4 µM (inactive) | 12.7 µM (inactive) | 3.46 µM (inactive) | 22.3 µM (inactive) | – | 17.8 µM (inactive) | 16.4 µM (inactive) | 21.4 µM (inactive) | 15.7 µM (inactive) | 14.4 µM (inactive) | 17.5 µM (inactive) | 2.05 µM (inactive) | – | 14.6 µM (inactive) | 17.2 µM (inactive)
O=[N+]([O-])/C(C(Cl)=C(Cl)Cl)=C(\N1CCOCC1)n1nnc2ccccc21 | 15.4 µM (inactive) | 18.8 µM (inactive) | – | 17.2 µM (inactive) | 22 µM (inactive) | 17.9 µM (inactive) | 16.7 µM (inactive) | – | 17.5 µM (inactive) | – | 21.1 µM (inactive) | 20.7 µM (inactive) | 27.2 µM (inactive) | – | 19.4 µM (inactive) | 18.1 µM (inactive) | 33.5 µM (inactive) | 22.2 µM (inactive) | 18.4 µM (inactive) | 17 µM (inactive)
CC(=O)Oc1cc(C(F)(F)F)ccc1C(=O)OC1(C)OC(=O)c2ccc(C(F)(F)F)cc2O1 (configuration not stated) | > 100 µM (inactive) | > 100 µM (inactive) | > 100 µM (inactive) | > 100 µM (inactive) | > 100 µM (inactive) | > 100 µM (inactive) | > 100 µM (inactive) | > 100 µM (inactive) | > 100 µM (inactive) | – | > 100 µM (inactive) | > 100 µM (inactive) | > 100 µM (inactive) | > 100 µM (inactive) | > 100 µM (inactive) | > 100 µM (inactive) | > 100 µM (inactive) | – | > 100 µM (inactive) | > 100 µM (inactive)
Oc1c(Cl)c(Cl)c(O)c(CCNc2nccs2)c1Cl | 1.68 µM (inactive) | 11.3 µM (inactive) | 6.84 µM (inactive) | 15.7 µM (inactive) | 16.9 µM (inactive) | 14.3 µM (inactive) | 21.6 µM (inactive) | 7.23 µM (inactive) | 0.119 µM (active) | – | 23.2 µM (inactive) | 20 µM (inactive) | 16.3 µM (inactive) | 16.1 µM (inactive) | 20.8 µM (inactive) | 3.67 µM (inactive) | 48.8 µM (inactive) | 22.3 µM (inactive) | 27.4 µM (inactive) | 16.1 µM (inactive)
Cn1c2ncccc2n2c(=O)cc(O)cc12 | > 100 µM (inactive) | 53 µM (inactive) | – | > 100 µM (inactive) | > 100 µM (inactive) | 86.1 µM (inactive) | > 100 µM (inactive) | 21.1 µM (inactive) | 32.4 µM (inactive) | – | 88.3 µM (inactive) | > 100 µM (inactive) | > 100 µM (inactive) | 39.4 µM (inactive) | 60.5 µM (inactive) | > 100 µM (inactive) | 20.7 µM (inactive) | 39.6 µM (inactive) | 33.6 µM (inactive) | 53.3 µM (inactive)
O=C1CC(Cl)c2c(Cl)sc(Cl)c21 (configuration not stated) | 2.63 µM (inactive) | 2.02 µM (inactive) | 1.4 µM (inactive) | 1.88 µM (inactive) | 1.47 µM (inactive) | 3.94 µM (inactive) | 3.56 µM (inactive) | – | – | 7.38 µM (inactive) | 16.2 µM (inactive) | 2.96 µM (inactive) | 18.6 µM (inactive) | 2.36 µM (inactive) | 13.8 µM (inactive) | 2.47 µM (inactive) | 1.23 µM (inactive) | – | 1.42 µM (inactive) | 2.36 µM (inactive)
CC(=O)/C=C\C1CC2C=CC1C2 (configuration not stated) | 37.4 µM (inactive) | 37.6 µM (inactive) | 26.8 µM (inactive) | 33.7 µM (inactive) | 43.1 µM (inactive) | 64.9 µM (inactive) | 67.1 µM (inactive) | 63 µM (inactive) | – | – | 53.3 µM (inactive) | – | > 100 µM (inactive) | 24.3 µM (inactive) | 44.1 µM (inactive) | – | 20.8 µM (inactive) | 49.2 µM (inactive) | 27.2 µM (inactive) | –
CCOC(=O)CCC1(C(=O)OCC)CCCC1=O (configuration not stated) | > 100 µM (inactive) | > 100 µM (inactive) | > 100 µM (inactive) | > 100 µM (inactive) | > 100 µM (inactive) | > 100 µM (inactive) | > 100 µM (inactive) | > 100 µM (inactive) | – | – | > 100 µM (inactive) | > 100 µM (inactive) | > 100 µM (inactive) | > 100 µM (inactive) | > 100 µM (inactive) | – | > 100 µM (inactive) | > 100 µM (inactive) | > 100 µM (inactive) | –
CCc1nc2ccccc2c(=O)n1/N=C(\N=N\c1ccc(Cl)cc1)c1ccccc1 | 22.5 µM (inactive) | 31.3 µM (inactive) | 42.4 µM (inactive) | 34.2 µM (inactive) | 23.1 µM (inactive) | 26.1 µM (inactive) | 23.3 µM (inactive) | 14.2 µM (inactive) | – | – | > 100 µM (inactive) | 13.2 µM (inactive) | 23.7 µM (inactive) | 29.2 µM (inactive) | 27.4 µM (inactive) | – | 28.1 µM (inactive) | 32.7 µM (inactive) | 38.6 µM (inactive) | –
C=C(C)/C=C/C(O)[C@](C)(O)[C@H]1[C@H](O)C[C@@]2(C)[C@@H]3CCc4c(cc(OC5OC(CO)C(O)C(O)C5O)c(O)c4C)C3(C)C(=O)C[C@]12C (some centres not stated) | 96.4 µM (inactive) | > 100 µM (inactive) | – | > 100 µM (inactive) | > 100 µM (inactive) | > 100 µM (inactive) | > 100 µM (inactive) | > 100 µM (inactive) | > 100 µM (inactive) | – | > 100 µM (inactive) | > 100 µM (inactive) | > 100 µM (inactive) | > 100 µM (inactive) | > 100 µM (inactive) | > 100 µM (inactive) | > 100 µM (inactive) | > 100 µM (inactive) | > 100 µM (inactive) | > 100 µM (inactive)
CCC[S+]([O-])c1nc(COC(=O)NC)c(COC(=O)NC)n1C (configuration not stated) | > 100 µM (inactive) | > 100 µM (inactive) | > 100 µM (inactive) | > 100 µM (inactive) | > 100 µM (inactive) | > 100 µM (inactive) | > 100 µM (inactive) | > 100 µM (inactive) | – | – | > 100 µM (inactive) | > 100 µM (inactive) | > 100 µM (inactive) | > 100 µM (inactive) | > 100 µM (inactive) | – | > 100 µM (inactive) | > 100 µM (inactive) | > 100 µM (inactive) | –
